Assay type in all cases: ADME, cell-based
Series [1] concerns the target T1, Cytochrome P450 3A4 (Homo sapiens, UniProt P08684). The series is described as follows: Drug activation in human Hep3B cells assessed as human CYP3A4-mediated drug metabolism-induced cytotoxicity measured as decrease in cell viability at 89.1 uM pre-incubated with BSO for 18 hrs followed by incubation with compound for 3 hrs in presence of NADPH measured after 24 hrs in absence of compound, CYP3A4 and NADPH by cell titer-glo luminescence assay relative to BSO alone. The following applies: recombinant enzyme. (In general: Cellular ATP, detected with luciferase, serves as a proxy for viable cell number.)

The target in series [2] is T2, Cytochrome P450 2C9 (Homo sapiens, UniProt P11712). The series is described as follows: Drug activation in human Hep3B cells assessed as human CYP2C9-mediated drug metabolism-induced cytotoxicity measured as decrease in cell viability at 200.9 uM pre-incubated with BSO for 18 hrs followed by incubation with compound for 3 hrs in presence of NADPH measured after 24 hrs in absence of compound, CYP3A4 and NADPH by cell titer-glo luminescence assay relative to BSO alone. The note with it: recombinant enzyme.

For series [3], the target named is T3, Cytochrome P450 2D6 (Homo sapiens, UniProt P10635). Kind of series: Drug activation in human Hep3B cells assessed as human CYP2D6-mediated drug metabolism-induced cytotoxicity measured as decrease in cell viability at 162.8 uM pre-incubated with BSO for 18 hrs followed by incubation with compound for 3 hrs in presence of NADPH measured after 24 hrs in absence of compound, CYP3A4 and NADPH by cell titer-glo luminescence assay relative to BSO alone. The note with it: recombinant enzyme.

In series [4] the target is T2, Cytochrome P450 2C9. Kind of series: Drug activation in human Hep3B cells assessed as human CYP2C9-mediated drug metabolism-induced cytotoxicity measured as decrease in cell viability at 59.9 uM pre-incubated with BSO for 18 hrs followed by incubation with compound for 3 hrs in presence of NADPH measured after 24 hrs in absence of compound, CYP3A4 and NADPH by cell titer-glo luminescence assay relative to BSO alone. The note with it: recombinant enzyme.

The target in series [5] is T1, Cytochrome P450 3A4. The series is described as follows: Drug activation in human Hep3B cells assessed as human CYP3A4-mediated drug metabolism-induced cytotoxicity measured as decrease in cell viability at 37.6 uM pre-incubated with BSO for 18 hrs followed by incubation with compound for 3 hrs in presence of NADPH measured after 24 hrs in absence of compound, CYP3A4 and NADPH by cell titer-glo luminescence assay relative to BSO alone. The following applies: recombinant enzyme.

Series [6] addresses T3, Cytochrome P450 2D6. Kind of series: Drug activation in human Hep3B cells assessed as human CYP2D6-mediated drug metabolism-induced cytotoxicity measured as decrease in cell viability at 66.8 uM pre-incubated with BSO for 18 hrs followed by incubation with compound for 3 hrs in presence of NADPH measured after 24 hrs in absence of compound, CYP3A4 and NADPH by cell titer-glo luminescence assay relative to BSO alone. The note with it: recombinant enzyme.

The target of series [7] is T1, Cytochrome P450 3A4. The series is described as follows: Drug activation in human Hep3B cells assessed as human CYP3A4-mediated drug metabolism-induced cytotoxicity measured as decrease in cell viability at 14.9 uM pre-incubated with BSO for 18 hrs followed by incubation with compound for 3 hrs in presence of NADPH measured after 24 hrs in absence of compound, CYP3A4 and NADPH by cell titer-glo luminescence assay relative to BSO alone. The following applies: recombinant enzyme.

Series [8] concerns the target T2, Cytochrome P450 2C9. The series is described as follows: Drug activation in human Hep3B cells assessed as human CYP2C9-mediated drug metabolism-induced cytotoxicity measured as decrease in cell viability at 78.1 uM pre-incubated with BSO for 18 hrs followed by incubation with compound for 3 hrs in presence of NADPH measured after 24 hrs in absence of compound, CYP3A4 and NADPH by cell titer-glo luminescence assay relative to BSO alone. The following applies: recombinant enzyme.

Series [9] addresses T3, Cytochrome P450 2D6. The series is described as follows: Drug activation in human Hep3B cells assessed as human CYP2D6-mediated drug metabolism-induced cytotoxicity measured as decrease in cell viability at 20.8 uM pre-incubated with BSO for 18 hrs followed by incubation with compound for 3 hrs in presence of NADPH measured after 24 hrs in absence of compound, CYP3A4 and NADPH by cell titer-glo luminescence assay relative to BSO alone. The note with it: recombinant enzyme.

Series [10] addresses T2, Cytochrome P450 2C9. The series is described as follows: Drug activation in human Hep3B cells assessed as human CYP2C9-mediated drug metabolism-induced cytotoxicity measured as decrease in cell viability at […] uM pre-incubated with BSO for 18 hrs followed by incubation with compound for 3 hrs in presence of NADPH measured after 24 hrs in absence of compound, CYP3A4 and NADPH by cell titer-glo luminescence assay relative to BSO alone. The following applies: recombinant enzyme, 14.6 µM.

Series [11] addresses T1, Cytochrome P450 3A4. Kind of series: Drug activation in human Hep3B cells assessed as human CYP3A4-mediated drug metabolism-induced cytotoxicity measured as decrease in cell viability at 6.5 uM pre-incubated with BSO for 18 hrs followed by incubation with compound for 3 hrs in presence of NADPH measured after 24 hrs in absence of compound, CYP3A4 and NADPH by cell titer-glo luminescence assay relative to BSO alone. The note with it: recombinant enzyme.

In series [12] the target is T3, Cytochrome P450 2D6. The series is described as follows: Drug activation in human Hep3B cells assessed as human CYP2D6-mediated drug metabolism-induced cytotoxicity measured as decrease in cell viability at 4.8 uM pre-incubated with BSO for 18 hrs followed by incubation with compound for 3 hrs in presence of NADPH measured after 24 hrs in absence of compound, CYP3A4 and NADPH by cell titer-glo luminescence assay relative to BSO alone. The note with it: recombinant enzyme.

For series [13], the target named is T1, Cytochrome P450 3A4. The series is described as follows: Drug activation in human Hep3B cells assessed as human CYP3A4-mediated drug metabolism-induced cytotoxicity measured as decrease in cell viability at 89.6 uM pre-incubated with BSO for 18 hrs followed by incubation with compound for 3 hrs in presence of NADPH measured after 24 hrs in absence of compound, CYP3A4 and NADPH by cell titer-glo luminescence assay relative to BSO alone. The note with it: recombinant enzyme.

For series [14], the target named is T2, Cytochrome P450 2C9. Kind of series: Drug activation in human Hep3B cells assessed as human CYP2C9-mediated drug metabolism-induced cytotoxicity measured as decrease in cell viability at 118.7 uM pre-incubated with BSO for 18 hrs followed by incubation with compound for 3 hrs in presence of NADPH measured after 24 hrs in absence of compound, CYP3A4 and NADPH by cell titer-glo luminescence assay relative to BSO alone. The note with it: recombinant enzyme.

Series [15] concerns the target T3, Cytochrome P450 2D6. The series is described as follows: Drug activation in human Hep3B cells assessed as human CYP2D6-mediated drug metabolism-induced cytotoxicity measured as decrease in cell viability at 130.3 uM pre-incubated with BSO for 18 hrs followed by incubation with compound for 3 hrs in presence of NADPH measured after 24 hrs in absence of compound, CYP3A4 and NADPH by cell titer-glo luminescence assay relative to BSO alone. The note with it: recombinant enzyme.

Series [16] has as its target T2, Cytochrome P450 2C9. Kind of series: Drug activation in human Hep3B cells assessed as human CYP2C9-mediated drug metabolism-induced cytotoxicity measured as decrease in cell viability at 77.6 uM pre-incubated with BSO for 18 hrs followed by incubation with compound for 3 hrs in presence of NADPH measured after 24 hrs in absence of compound, CYP3A4 and NADPH by cell titer-glo luminescence assay relative to BSO alone. The note with it: recombinant enzyme.

In series [17] the target is T1, Cytochrome P450 3A4. The series is described as follows: Drug activation in human Hep3B cells assessed as human CYP3A4-mediated drug metabolism-induced cytotoxicity measured as decrease in cell viability at 10.7 uM pre-incubated with BSO for 18 hrs followed by incubation with compound for 3 hrs in presence of NADPH measured after 24 hrs in absence of compound, CYP3A4 and NADPH by cell titer-glo luminescence assay relative to BSO alone. The note with it: recombinant enzyme.

Series [18] has as its target T3, Cytochrome P450 2D6. The series is described as follows: Drug activation in human Hep3B cells assessed as human CYP2D6-mediated drug metabolism-induced cytotoxicity measured as decrease in cell viability at 131.3 uM pre-incubated with BSO for 18 hrs followed by incubation with compound for 3 hrs in presence of NADPH measured after 24 hrs in absence of compound, CYP3A4 and NADPH by cell titer-glo luminescence assay relative to BSO alone. The note with it: recombinant enzyme.

In series [19] the target is T2, Cytochrome P450 2C9. Kind of series: Drug activation in human Hep3B cells assessed as human CYP2C9-mediated drug metabolism-induced cytotoxicity measured as decrease in cell viability at 14 uM pre-incubated with BSO for 18 hrs followed by incubation with compound for 3 hrs in presence of NADPH measured after 24 hrs in absence of compound, CYP3A4 and NADPH by cell titer-glo luminescence assay relative to BSO alone. The following applies: recombinant enzyme.

Series [20] has as its target T3, Cytochrome P450 2D6. Kind of series: Drug activation in human Hep3B cells assessed as human CYP2D6-mediated drug metabolism-induced cytotoxicity measured as decrease in cell viability at 8.6 uM pre-incubated with BSO for 18 hrs followed by incubation with compound for 3 hrs in presence of NADPH measured after 24 hrs in absence of compound, CYP3A4 and NADPH by cell titer-glo luminescence assay relative to BSO alone. The following applies: recombinant enzyme.

For series [21], the target named is T1, Cytochrome P450 3A4. Kind of series: Drug activation in human Hep3B cells assessed as human CYP3A4-mediated drug metabolism-induced cytotoxicity measured as decrease in cell viability at 9.6 uM pre-incubated with BSO for 18 hrs followed by incubation with compound for 3 hrs in presence of NADPH measured after 24 hrs in absence of compound, CYP3A4 and NADPH by cell titer-glo luminescence assay relative to BSO alone. The following applies: recombinant enzyme.

T3 sequence (P10635 whole entry): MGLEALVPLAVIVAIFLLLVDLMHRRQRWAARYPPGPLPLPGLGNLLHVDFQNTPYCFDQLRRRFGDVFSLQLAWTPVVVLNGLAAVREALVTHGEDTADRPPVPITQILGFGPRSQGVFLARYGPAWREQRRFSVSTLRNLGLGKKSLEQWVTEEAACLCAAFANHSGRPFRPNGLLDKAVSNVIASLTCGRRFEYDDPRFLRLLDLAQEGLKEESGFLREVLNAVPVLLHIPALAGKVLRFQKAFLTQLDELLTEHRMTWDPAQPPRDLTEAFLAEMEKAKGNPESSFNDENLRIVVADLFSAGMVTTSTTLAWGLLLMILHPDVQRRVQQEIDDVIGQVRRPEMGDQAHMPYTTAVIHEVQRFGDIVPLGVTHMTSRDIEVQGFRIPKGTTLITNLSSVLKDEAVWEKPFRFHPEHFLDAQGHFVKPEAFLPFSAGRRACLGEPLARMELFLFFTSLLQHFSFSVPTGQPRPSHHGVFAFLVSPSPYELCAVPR
T2 sequence (P11712 whole entry): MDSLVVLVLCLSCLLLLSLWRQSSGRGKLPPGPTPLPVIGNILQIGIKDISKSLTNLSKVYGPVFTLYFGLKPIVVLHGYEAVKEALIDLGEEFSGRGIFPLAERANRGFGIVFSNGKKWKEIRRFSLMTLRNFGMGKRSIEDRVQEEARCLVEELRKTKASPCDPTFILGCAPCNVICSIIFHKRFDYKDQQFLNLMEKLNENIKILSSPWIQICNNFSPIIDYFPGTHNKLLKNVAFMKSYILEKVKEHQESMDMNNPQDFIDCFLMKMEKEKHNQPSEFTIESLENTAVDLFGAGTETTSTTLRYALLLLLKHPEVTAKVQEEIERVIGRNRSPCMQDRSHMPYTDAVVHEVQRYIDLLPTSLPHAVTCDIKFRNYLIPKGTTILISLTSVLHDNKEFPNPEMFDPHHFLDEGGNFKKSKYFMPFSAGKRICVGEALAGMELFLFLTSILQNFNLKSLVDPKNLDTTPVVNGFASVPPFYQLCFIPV
T1 sequence (P08684 whole entry): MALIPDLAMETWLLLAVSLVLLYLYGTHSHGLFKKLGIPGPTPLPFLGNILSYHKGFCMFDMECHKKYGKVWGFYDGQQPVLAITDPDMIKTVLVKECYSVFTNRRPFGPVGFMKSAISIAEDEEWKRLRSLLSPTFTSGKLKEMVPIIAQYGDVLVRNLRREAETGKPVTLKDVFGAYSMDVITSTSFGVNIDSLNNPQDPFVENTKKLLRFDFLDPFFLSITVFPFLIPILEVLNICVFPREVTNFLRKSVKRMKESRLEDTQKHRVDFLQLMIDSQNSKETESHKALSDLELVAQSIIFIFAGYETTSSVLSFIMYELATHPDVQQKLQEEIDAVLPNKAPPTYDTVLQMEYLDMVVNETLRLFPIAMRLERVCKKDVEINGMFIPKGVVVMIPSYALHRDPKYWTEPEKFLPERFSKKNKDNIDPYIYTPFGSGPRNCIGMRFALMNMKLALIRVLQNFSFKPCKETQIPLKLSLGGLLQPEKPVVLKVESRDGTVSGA

As to `CN1[C@@H]2CC[C@H]1C[C@@H](OC(c1ccccc1)c1ccccc1)C2` [BENZTROPINE], the “fold change (FC)” value at Cytochrome P450 3A4 [1] amounted to 1.2; at Cytochrome P450 2C9 [2], 0.5; at Cytochrome P450 2D6 [3] it was 0.7.
As to `CC(C)(C)NC[C@H](O)COc1ccccc1C1CCCC1` [PENBUTOLOL], the “fold change (FC)” value turned out to be 0.9 at Cytochrome P450 2C9 [4], 1.5 on Cytochrome P450 3A4 [5] and 0.8 at Cytochrome P450 2D6 [6].
As for `CC[C@@H](CO)NC(=O)[C@@H]1C=C2c3cccc4c3c(cn4C)C[C@H]2N(C)C1` [METHYSERGIDE], the “fold change (FC)” value on Cytochrome P450 3A4 [7] is on record as 2.9; at Cytochrome P450 2C9 [8] it was 0.6; at Cytochrome P450 2D6 [9] it was 2.1.
On to `COc1cc(NC(C)CCCN)c2ncccc2c1` (stereo unspecified) [PRIMAQUINE], for which, at Cytochrome P450 2C9 [10], the FC was determined as 5.5. The “fold change (FC)” value on Cytochrome P450 3A4 [11] turned out to be 12.3; on Cytochrome P450 2D6 [12], 16.7.
On to `CN1CC(C(=O)N[C@]2(C)O[C@@]3(O)[C@@H]4CCCN4C(=O)[C@H](Cc4ccccc4)N3C2=O)C[C@@H]2c3cccc4[nH]cc(c34)C[C@H]21` (stereo partly specified), for which the “fold change (FC)” value came out at 0.7 on Cytochrome P450 3A4 [13], 0.5 on Cytochrome P450 2C9 [14] and 0.5 on Cytochrome P450 2D6 [15].
In the case of `CCN(CC)CC#CCOC(=O)C(O)(c1ccccc1)C1CCCCC1` (stereo unspecified) [OXYBUTYNIN], the “fold change (FC)” value at Cytochrome P450 2C9 [16] turned out to be 0.6; on Cytochrome P450 3A4 [17], 4.3; on Cytochrome P450 2D6 [18] it was 0.4.
For `CC(COc1ccccc1)N(CCCl)Cc1ccccc1` (stereo unspecified) [PHENOXYBENZAMINE], the entries for the “fold change (FC)” value on Cytochrome P450 2C9 [19], at Cytochrome P450 2D6 [20] and at Cytochrome P450 3A4 [21] were 0.9, 1.5 and 1.3, respectively.

Values taken from ChEMBL document CHEMBL4477225, “Development of a cell viability assay to assess drug metabolite structure-toxicity relationships” (Bioorg Med Chem Lett, 2016).
